Test results: ChEMBL document CHEMBL3758149, “3-(Piperidin-4-ylmethoxy)pyridine Containing Compounds Are Potent Inhibitors of Lysine Specific Demethylase 1” (J Med Chem, 2016)

Target: T1, Lysine-specific histone demethylase 1A (Homo sapiens, UniProt O60341)

| Ki | Structure (SMILES) |
| --- | --- |
| > 50 µM | Cc1ccc(-c2ncc(OCC3CCNCC3)cc2-c2ccc(C(=O)N3CCOCC3)cc2)cc1 |
| > 50 µM | Cc1ccc(-c2ncc(OCc3ccccc3)cc2-c2ccc(C#N)cc2)cc1 |
| 16.5 µM | N#Cc1ccc(-c2ncc(OCC3CCNCC3)nc2-c2ccc(Br)cc2)cc1 |
| > 50 µM | Cc1ccc(-c2ncc(OCC3CCNCC3)cc2-c2ccc(C(=O)N3CCCCC3)cc2)cc1 |
| > 50 µM | c1ccc(-c2ccc(OCC3CCNCC3)cn2)cc1 |
| > 50 µM | Cc1ccc(-c2ncc(OCC3CCNCC3)cc2-c2ccc(CN3CCCCC3)cc2)cc1 |
| 9.1 µM | N#Cc1ccc(-c2ncc(OCC3CCNCC3)nc2-c2ccc(C#N)cc2)cc1 |
| 0.54 µM | N#Cc1ccc(-c2nc(OCC3CCNCC3)cnc2-c2ccc(Br)cc2)cc1 |
| > 50 µM | Cc1ccc(-c2ncc(OCC3CCNCC3)cc2-c2ccc(C(=O)N3CCNCC3)cc2)cc1 |
| > 50 µM | Cc1ccc(-c2ncc(OCC3CCNCC3)cc2-c2ccc(C(=O)O)cc2)cc1 |
| > 50 µM | C#Cc1ccc(-c2cc(OCC3CCNCC3)cnc2-c2ccc(C)cc2)cc1 |
| > 50 µM | Cc1ccc(-c2ncc(O)cc2-c2ccc(C#N)cc2)cc1 |
| > 50 µM | Cc1ccc(-c2ncc(OCC3CCNCC3)cc2-c2ccc(C(=O)NC3CC3)cc2)cc1 |
| 26.2 µM | Brc1ccc(-c2ncc(OCC3CCNCC3)nc2-c2ccc(Br)cc2)cc1 |

| Structure (SMILES) | Ki |
| --- | --- |
| c1ccc(-c2cc(OCC3CCNCC3)cnc2-c2ccccc2)cc1 | > 50 µM |
| Cc1ccc(-c2ncc(OCC3CCNCC3)cc2-c2ccc(CO)cc2)cc1 | > 50 µM |

Target: T2, Amine oxidase [flavin-containing] A (Homo sapiens, UniProt P21397)
T2 sequence (P21397 whole entry): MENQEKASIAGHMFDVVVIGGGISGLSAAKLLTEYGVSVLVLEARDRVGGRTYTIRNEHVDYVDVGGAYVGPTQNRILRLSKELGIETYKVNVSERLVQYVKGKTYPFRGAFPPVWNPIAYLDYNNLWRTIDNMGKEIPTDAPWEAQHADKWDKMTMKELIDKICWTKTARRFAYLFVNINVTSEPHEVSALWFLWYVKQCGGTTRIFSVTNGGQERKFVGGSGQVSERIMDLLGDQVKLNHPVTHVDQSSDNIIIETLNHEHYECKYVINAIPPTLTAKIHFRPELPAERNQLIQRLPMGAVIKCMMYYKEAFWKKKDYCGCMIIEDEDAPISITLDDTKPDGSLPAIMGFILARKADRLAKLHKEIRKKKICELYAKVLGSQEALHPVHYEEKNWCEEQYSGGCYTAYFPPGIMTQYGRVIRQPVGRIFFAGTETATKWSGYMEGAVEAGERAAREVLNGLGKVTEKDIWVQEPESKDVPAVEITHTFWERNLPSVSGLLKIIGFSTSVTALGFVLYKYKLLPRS
Description: Inhibition of recombinant human MAO-A after 60 mins MAO-glo assay

| Ki | Structure (SMILES) |
| --- | --- |
| > 50 µM | N#Cc1ccc(-c2cc(OCC3CCNCC3)cnc2-c2ccccc2)cc1 |
| > 50 µM | Cc1ccc(-c2ncc(OCC3CCNCC3)cc2-c2ccc(C#N)cc2)cc1 |
| > 50 µM | N#Cc1ccc(-c2cc(OCC3CCNCC3)cnc2-c2ccc(OC(F)(F)F)cc2)cc1 |
| > 50 µM | N#Cc1ccc(-c2cc(OCC3CCNCC3)cnc2-c2ccc(C(F)(F)F)cc2)cc1 |

Target: T1, Lysine-specific histone demethylase 1A
Remark: another data set of the same source

| IC50 | Structure (SMILES) |
| --- | --- |
| 0.077 µM | CN1CCN(C(=O)CN[C@H]2C[C@@H]2c2ccc(-c3ccc(F)nc3)cc2)CC1 (relative stereo) |
